The test deals with Telomerase reverse transcriptase (Homo sapiens, UniProt O14746). The test can be described thus: Inhibition of telomerase (unknown origin).
Chain of Telomerase reverse transcriptase (O14746 whole entry): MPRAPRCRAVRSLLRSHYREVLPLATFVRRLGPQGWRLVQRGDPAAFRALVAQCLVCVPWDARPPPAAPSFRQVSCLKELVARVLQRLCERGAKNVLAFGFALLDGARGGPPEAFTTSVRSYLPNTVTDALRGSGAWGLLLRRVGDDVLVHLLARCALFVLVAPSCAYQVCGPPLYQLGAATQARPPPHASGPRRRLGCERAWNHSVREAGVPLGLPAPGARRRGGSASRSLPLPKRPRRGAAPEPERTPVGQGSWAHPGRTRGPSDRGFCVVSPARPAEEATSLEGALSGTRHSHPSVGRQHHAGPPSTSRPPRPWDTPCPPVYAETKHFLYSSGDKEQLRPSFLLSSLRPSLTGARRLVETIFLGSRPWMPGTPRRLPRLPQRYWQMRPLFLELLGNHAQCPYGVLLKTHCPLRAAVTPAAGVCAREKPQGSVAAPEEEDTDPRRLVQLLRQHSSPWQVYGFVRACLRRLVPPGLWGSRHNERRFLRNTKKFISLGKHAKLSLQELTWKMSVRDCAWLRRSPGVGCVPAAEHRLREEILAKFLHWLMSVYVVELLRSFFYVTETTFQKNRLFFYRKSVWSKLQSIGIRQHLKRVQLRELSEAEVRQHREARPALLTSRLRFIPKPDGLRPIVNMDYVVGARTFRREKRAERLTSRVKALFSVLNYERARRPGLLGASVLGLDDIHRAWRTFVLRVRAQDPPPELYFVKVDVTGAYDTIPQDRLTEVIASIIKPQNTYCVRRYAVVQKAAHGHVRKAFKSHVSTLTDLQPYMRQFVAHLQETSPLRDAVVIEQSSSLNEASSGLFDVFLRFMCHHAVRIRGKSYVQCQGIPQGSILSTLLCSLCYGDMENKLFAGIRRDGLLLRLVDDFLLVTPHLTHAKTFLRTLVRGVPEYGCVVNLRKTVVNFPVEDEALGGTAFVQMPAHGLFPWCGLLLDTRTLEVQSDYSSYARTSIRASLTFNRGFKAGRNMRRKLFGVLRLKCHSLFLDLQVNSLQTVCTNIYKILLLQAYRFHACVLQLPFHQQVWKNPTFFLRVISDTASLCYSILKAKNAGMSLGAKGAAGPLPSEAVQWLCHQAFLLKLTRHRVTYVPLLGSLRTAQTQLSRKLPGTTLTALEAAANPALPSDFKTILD

On to `CSc1nc(Nc2ccc3nc(C)cc(N(C)C)c3c2)nc(Nc2ccc3nc(C)cc(N(C)C)c3c2)n1`, for which 0.0408 µM corresponded to half-maximal inhibition (IC50). `CC1=C2NC(=C3CSC(=N3)c3coc(n3)-c3coc(n3)-c3coc(n3)-c3coc(n3)-c3coc(n3)-c3nc2oc3C)O1` [telomestatin] displayed a half-inhibitory concentration (IC50) of 0.00501 µM. In turn, `CN(C)CCCNCc1ccc2nc3ccc4cc5cc(CNCCCN(C)C)ccc5nc4c3cc2c1` came in with an IC50 of 0.0282 µM.

For orientation: IC50 means the midpoint of a concentration-inhibition curve. High values mean a need for much substance, low ones inhibition by little substance.

Source of the values: BindingDB's records for doi:10.1007/s00044-011-9594-4 (n/a, 2012).
